Measured values published in US20250236614A1, “BICYCLIC TETRAHYDROAZEPINE DERIVATIVES” (Hoffmann-La Roche Inc., priority 2022, published 2025).

Legend:
DGK α kinase = DGK α kinase (Homo sapiens, UniProt P23743); assay: In vitro DGK inhibition assay (ADP Glo) run by Reaction Biology Corp., DGK alpha; assay type: biochemical; settings: isomer A, 2 nM kinase, 50 μM ATP, 500 uM DLG, 10-dose, 3-fold dilution starting at 1 μM, read-out: DGKalpha IC50
Description: (§1) DGK α and ζ kinase use ATP to phosphorylate the substrate 1,2-dilauroyl-sn-glycerol (DLG). ATP is converted to ADP as a result of this enzymatic reaction.
(§2) After the kinase reaction, an ATP-depletion reagent is added to terminate the kinase reaction and deplete any remaining ATP, leaving only ADP. Second, a detection reagent is added to simultaneously convert ADP to ATP and allow the newly synthesized ATP to be converted to light using a coupled luciferase/luciferin reaction.
(§3) DGK α and ζ kinase ADP Glo assays were ran by Reaction Biology Corp., 1 Great Valley Parkway, Suite 2, Malverm, 19355, PA, USA. Information provided by the service provider are the following: DGK α and ζ kinases were used at 2 nM final concentration. Reactions were carried out at 50 μM ATP. 500 uM of the substrate DLG (Dilauroyl-sn-glycerol) was used. Compounds were received at 10 mM DMSO stock solution and were tested in 10-dose IC50 duplicate with 3-fold serial dilution starting at 1 μM. A control compound, Calphostin C, was tested in 10-dose IC50 with 3-fold serial dilution starting at 100 μM.

DGK ζ kinase = DGK ζ kinase (Homo sapiens, UniProt Q13574); assay: In vitro DGK inhibition assay (ADP Glo) run by Reaction Biology Corp., DGK zeta; assay type: biochemical; settings: isomer A, 2 nM kinase, 50 μM ATP, 500 uM DLG, 10-dose, 3-fold dilution starting at 1 μM, read-out: DGKzeta IC50
DGK ζ kinase, sequence (Q13574 whole entry): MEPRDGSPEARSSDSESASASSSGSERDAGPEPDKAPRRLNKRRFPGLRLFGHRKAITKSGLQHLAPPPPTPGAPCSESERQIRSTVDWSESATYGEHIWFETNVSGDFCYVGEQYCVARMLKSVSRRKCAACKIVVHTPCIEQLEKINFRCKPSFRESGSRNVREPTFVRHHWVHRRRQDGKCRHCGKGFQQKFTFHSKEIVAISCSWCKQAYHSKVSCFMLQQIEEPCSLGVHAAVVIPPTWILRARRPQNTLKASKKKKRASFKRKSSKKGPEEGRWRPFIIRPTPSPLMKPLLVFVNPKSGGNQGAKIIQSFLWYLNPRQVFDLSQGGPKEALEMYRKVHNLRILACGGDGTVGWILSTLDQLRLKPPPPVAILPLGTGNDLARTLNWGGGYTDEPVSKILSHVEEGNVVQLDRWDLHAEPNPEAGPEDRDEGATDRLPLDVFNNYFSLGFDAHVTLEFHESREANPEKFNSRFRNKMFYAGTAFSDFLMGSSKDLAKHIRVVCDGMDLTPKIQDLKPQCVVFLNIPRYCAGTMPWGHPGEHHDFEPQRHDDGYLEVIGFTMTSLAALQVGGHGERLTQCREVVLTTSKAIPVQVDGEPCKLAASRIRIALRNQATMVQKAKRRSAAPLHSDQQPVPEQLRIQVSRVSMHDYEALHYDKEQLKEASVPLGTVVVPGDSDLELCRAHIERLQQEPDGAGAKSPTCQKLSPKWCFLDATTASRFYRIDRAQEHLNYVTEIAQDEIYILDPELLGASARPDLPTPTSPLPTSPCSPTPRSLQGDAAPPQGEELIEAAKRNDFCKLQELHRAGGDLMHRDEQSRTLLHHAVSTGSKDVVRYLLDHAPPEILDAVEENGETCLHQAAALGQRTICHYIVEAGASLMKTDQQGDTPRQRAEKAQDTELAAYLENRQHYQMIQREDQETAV
Description: as §1, §2, §3

DGK α kinase, sequence (P23743 whole entry): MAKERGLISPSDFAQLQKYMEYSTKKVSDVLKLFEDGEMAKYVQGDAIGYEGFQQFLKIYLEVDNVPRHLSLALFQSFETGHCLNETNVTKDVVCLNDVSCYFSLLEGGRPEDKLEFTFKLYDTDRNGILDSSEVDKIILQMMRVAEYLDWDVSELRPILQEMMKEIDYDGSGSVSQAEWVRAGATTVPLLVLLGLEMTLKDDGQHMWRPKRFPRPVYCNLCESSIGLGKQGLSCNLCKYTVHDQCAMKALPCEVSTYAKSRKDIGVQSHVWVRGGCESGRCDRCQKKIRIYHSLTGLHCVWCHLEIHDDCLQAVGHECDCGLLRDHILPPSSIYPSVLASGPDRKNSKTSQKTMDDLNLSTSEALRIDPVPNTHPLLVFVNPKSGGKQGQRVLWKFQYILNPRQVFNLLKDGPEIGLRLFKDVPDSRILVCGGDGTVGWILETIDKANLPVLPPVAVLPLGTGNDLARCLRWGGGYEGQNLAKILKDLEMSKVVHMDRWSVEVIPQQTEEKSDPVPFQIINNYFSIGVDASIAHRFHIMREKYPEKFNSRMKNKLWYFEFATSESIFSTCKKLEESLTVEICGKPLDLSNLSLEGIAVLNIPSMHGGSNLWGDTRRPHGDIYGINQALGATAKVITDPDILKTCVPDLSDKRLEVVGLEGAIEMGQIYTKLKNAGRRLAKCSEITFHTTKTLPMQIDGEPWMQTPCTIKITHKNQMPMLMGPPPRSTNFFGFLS

Compound	IC50 (DGK α kinase)	IC50 (DGK ζ kinase)
2-methyl-2-[5-[(3S)-3-amino-5,5,7-trifluoro-2-oxo-1-[[4-(trifluoromethoxy)phenyl]methyl]-3,4-dihydro-1-benzazepin-8-yl]-1,3,4-oxadiazol-2-yl]propanenitrile and 2-methyl-2-[5-[(3R)-3-amino-5,5,7-trifluoro-2-oxo-1-[[4-(trifluoromethoxy)phenyl]methyl]-3,4-dihydro-1-benzazepin-8-yl]-1,3,4-oxadiazol-2-yl]propanenitrile [Example 2]	10.5 nM	22.1 nM
CC(C)(c1nnc(-c2cc3c(cc2F)C(F)(F)CC(N)C(=O)N3Cc2ccc(Oc3ccccc3)cc2)o1)S(C)(=O)=O (racemic) [Example 5, (3S)-3-amino-5,5,7-trifluoro-8-[5-(1-methyl-1-methylsulfonyl-ethyl)-1,3,4-oxadiazol-2-yl]-1-[(4-phenoxyphenyl)methyl]-3,4-dihydro-1-benzazepin-2-one and (3R)-3-amino-5,5,7-trifluoro-8-[5-(1-methyl-1-methylsulfonyl-ethyl)-1,3,4-oxadiazol-2-yl]-1-[(4-phenoxyphenyl)methyl]-3,4-dihydro-1-benzazepin-2-one]	124 nM	57.9 nM
CC(C)(C#N)c1nnc(-c2cc3c(cc2F)C(F)(F)CC(N)C(=O)N3Cc2ccc(-n3cc(C(F)(F)F)cn3)cc2)o1 (racemic) [Example 33, 2-[5-[(3S)-3-amino-5,5,7-trifluoro-2-oxo-1-[[4-[4-(trifluoromethyl)pyrazol-1-yl]phenyl]methyl]-3,4-dihydro-1-benzazepin-8-yl]-1,3,4-oxadiazol-2-yl]-2-methyl-propanenitrile and 2-[5-[(3R)-3-amino-5,5,7-trifluoro-2-oxo-1-[[4-[4-(trifluoromethyl)pyrazol-1-yl]phenyl]methyl]-3,4-dihydro-1-benzazepin-8-yl]-1,3,4-oxadiazol-2-yl]-2-methyl-propanenitrile]	8.2 nM	80.3 nM
CC(C)(C)c1nnc(-c2cc3c(cc2F)C(F)(F)C[C@@H](N)C(=O)N3Cc2ccc(OC3CCCC3)cc2)o1 (single isomer, unassigned) [Example 7]	70.3 nM	49.5 nM
COc1ccc(-c2ccc(CN3C(=O)[C@H](N)CC(F)(F)c4cc(F)c(-c5nnc(C(C)(C)C#N)o5)cc43)cc2)cc1 (single isomer, unassigned) [Example 9]	43.6 nM	32.6 nM
COc1ccc(-c2ccc(CN3C(=O)[C@H](N)CC(F)(F)c4cc(F)c(-c5nnc(C(C)(C)S(C)(=O)=O)o5)cc43)cc2)cc1 (single isomer, unassigned) [Example 10]	93.1 nM	1060 nM
CC(C)(C#N)c1nnc(-c2cc3c(cc2F)C(F)(F)C[C@@H](N)C(=O)N3Cc2ccc(-c3ccc(C(F)(F)F)cn3)cc2)o1 (single isomer, unassigned) [Example 12]	108 nM	73 nM
CC(F)(F)c1ccc(-c2ccc(CN3C(=O)[C@H](N)CC(F)(F)c4cc(F)c(-c5nnc(C(C)(C)C#N)o5)cc43)cc2)nc1 (single isomer, unassigned) [Example 37]	46.2 nM	136 nM
